The term IC50 denotes the midpoint of a concentration-inhibition curve.

In one test the test system is Vps34. As to the kind of experiment: in vitro inhibition of Vps34. In kind it is biochemical.
In the next test the target is p110γ (Homo sapiens, UniProt P48736). As to the kind of experiment: in vitro inhibition of class I PI3K p110γ. In kind it is biochemical.
Chain of p110γ (P48736 whole entry, species assumed): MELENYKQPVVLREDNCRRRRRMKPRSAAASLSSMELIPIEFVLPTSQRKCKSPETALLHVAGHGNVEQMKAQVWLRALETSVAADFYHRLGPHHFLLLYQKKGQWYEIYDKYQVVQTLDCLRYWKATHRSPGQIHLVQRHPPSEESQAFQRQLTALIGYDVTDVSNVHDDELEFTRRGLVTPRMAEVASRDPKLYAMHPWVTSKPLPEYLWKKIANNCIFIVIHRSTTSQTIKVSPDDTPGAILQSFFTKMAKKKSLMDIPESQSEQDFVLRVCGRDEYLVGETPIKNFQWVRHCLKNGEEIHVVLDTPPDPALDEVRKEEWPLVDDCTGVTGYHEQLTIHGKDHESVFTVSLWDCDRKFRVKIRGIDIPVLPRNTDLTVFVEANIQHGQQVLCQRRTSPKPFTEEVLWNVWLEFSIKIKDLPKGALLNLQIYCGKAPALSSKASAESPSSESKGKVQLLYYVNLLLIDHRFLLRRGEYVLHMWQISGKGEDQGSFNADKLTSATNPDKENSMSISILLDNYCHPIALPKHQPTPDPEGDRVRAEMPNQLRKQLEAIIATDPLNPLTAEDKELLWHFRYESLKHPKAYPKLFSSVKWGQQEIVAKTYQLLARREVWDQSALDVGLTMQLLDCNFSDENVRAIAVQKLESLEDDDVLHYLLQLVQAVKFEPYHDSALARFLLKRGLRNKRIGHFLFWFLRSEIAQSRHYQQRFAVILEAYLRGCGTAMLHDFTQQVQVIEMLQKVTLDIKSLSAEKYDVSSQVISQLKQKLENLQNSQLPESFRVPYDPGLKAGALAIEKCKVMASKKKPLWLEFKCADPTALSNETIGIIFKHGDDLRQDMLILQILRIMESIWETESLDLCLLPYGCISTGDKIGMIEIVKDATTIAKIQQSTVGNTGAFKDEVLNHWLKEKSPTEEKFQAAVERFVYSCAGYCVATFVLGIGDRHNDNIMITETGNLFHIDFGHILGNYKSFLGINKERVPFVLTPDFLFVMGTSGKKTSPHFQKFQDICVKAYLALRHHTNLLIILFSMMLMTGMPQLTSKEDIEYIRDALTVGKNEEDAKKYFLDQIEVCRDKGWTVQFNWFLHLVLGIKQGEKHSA

Consider `Cn1cnc(N)c2ncnc1-2` [3-MA, 3-methyladenine, reference compound], for which the “specificity for Vps34 versus other PI3Ks (in words)” value with Vps34 (in vitro assays, Fig. S8, Fig. 4G) is on record as “preference for Vps34”.

In the case of `CC(=O)Nc1nc(C)c(-c2ccc(Cl)c(S(=O)(=O)NCCO)c2)s1` [PIK-93, reference compound], the “IC50 of PIK-93 relative to PIK-90 (in words)” value in the test on Vps34 (Fig. S8) is “lower IC50”.

As to `COc1ccc(-c2sc(NC(C)=O)nc2C)cc1S(=O)(=O)NCCO` [PT21], in the test on Vps34 (analogues of PIK-93, Fig. S9), the “change in IC50 relative to PIK-93 (in words)” value is recorded as “little change in IC50”. Moreover, the IC50 in the test on Vps34 (read-out: IC50 for Vps34, in vitro, Fig. S9) amounted to 88 nM; on p110γ (read-out: IC50 for the most potently inhibited Class I PI3K (p110γ), in vitro, Fig. S9), 61 nM. On p110γ (ratio of IC50 values vs PIK93), the “increase in IC50 for PI3Kγ (p110γ) compared to PIK93” value was above 10 fold.

(Values after publication PMC2860105 (Science (New York, N.Y.), 2010).)
